Here are results for 5 molecules from article PMC3291892 (Bioconjugate Chemistry, 2012).

In test [1] the target is T1, hA3AR (Homo sapiens, UniProt P0DMS8).
T1 sequence (P0DMS8 1-318): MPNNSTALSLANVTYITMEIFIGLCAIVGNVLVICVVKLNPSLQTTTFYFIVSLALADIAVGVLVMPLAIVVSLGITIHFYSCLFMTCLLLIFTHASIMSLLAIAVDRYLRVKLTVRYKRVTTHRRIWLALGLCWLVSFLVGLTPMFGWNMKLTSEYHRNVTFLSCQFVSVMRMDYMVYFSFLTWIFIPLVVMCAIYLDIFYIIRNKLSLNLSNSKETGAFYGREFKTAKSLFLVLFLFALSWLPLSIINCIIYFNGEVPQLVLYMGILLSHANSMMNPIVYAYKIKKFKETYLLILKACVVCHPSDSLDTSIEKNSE
In kind it is cell-based. Particulars: at 10 μM; relative to NECA 10 μM.

Test [2] concerns the target T1, hA3AR. As to the kind of experiment: Radioligand binding at hA3AR. Particulars: A3AR versus A1AR.

As to `CNC(=O)[C@@]12C[C@@H]1[C@@H](n1cnc3c(NCc4cccc(C#CCCCCCc5cn(-c6ccc(F)c([N+](=O)[O-])c6)nn5)c4)nc(Cl)nc31)[C@H](O)[C@@H]2O` [Compound 14, (1S, 2R, 3S, 4R, 5S)-4-(2-Chloro-6-(3-(7-(1-(4-fluoro-3-nitrophenyl)-1H-1,2,3-triazol-4-yl)hept-1-ynyl)benzylamino)-9H-purin-9-yl)-2,3-dihydroxybicyclo[3.1.0]hexane-1-carboxylic acid-N-methylamide], at hA3AR [1], the “A3AR efficacy in the functional assay (in words)” value (“A3AR efficacy” below) is “intermediate efficacy”.

On to `CNC(=O)[C@@]12C[C@@H]1[C@@H](n1cnc3c(NCc4cccc(C#CCCCc5cn(-c6ccc(F)c(N)c6)nn5)c4)nc(Cl)nc31)[C@H](O)[C@@H]2O` [Compound 16, (1S, 2R, 3S, 4R, 5S)-4-(2-Chloro-6-(3-(5-(1-(4-fluoro-3-amino-phenyl)-1H-1,2,3-triazol-4-yl)pent-1-ynyl)benzylamino)-9H-purin-9-yl)-2,3-dihydroxybicyclo[3.1.0]hexane-1-carboxylic acid-N-methylamide], for which the “A3AR efficacy” value at hA3AR [1] is reported as “intermediate efficacy”.

For the molecule `C#CCNc1nc(Cl)nc2c1ncn2[C@H]1[C@H](O)[C@H](O)[C@]2(C(=O)NC)C[C@H]12` [Compound 31, (1S, 2R, 3S, 4R, 5S)-4-(2-Chloro-6-(prop-2-ynylamino)-9H-purin-9-yl)-2,3-dihydroxy-N-methylbicyclo[3.1.0]hexane-1-carboxamide], the “selectivity for A3AR in comparison to the A1AR” value at hA3AR [2] came to 270 fold.

Consider “(1S, 2R, 3S, 4R, 5S)-4-[2-Chloro-6-{3-(1,7-octadiynyl)}-9H-purin -9-yl]- 2, 3-dihydroxybicyclo[3.1.0]hexane-1-carboxylic acid N-methylamide [Compound 10]”, for which the “A3AR efficacy” value on hA3AR [1] is on record as “intermediate efficacy”.

For “(1S, 2R, 3S, 4R, 5S)-4-[2-Chloro-6-{3-(1,8-nonadiynyl)}-9H-purin -9-yl]- 2, 3-dihydroxybicyclo[3.1.0]hexane-1-carboxylic acid N-methylamide [Compound 11]”, the “A3AR efficacy” value at hA3AR [1] was “intermediate efficacy”.
